The record followed here is ChEMBL document CHEMBL3227984, “5-Substituted uracil arabinonucleosides as potential antiviral agents” (J Med Chem, 1979).

For this assay, the system named is Vaccinia virus. Kind of assay: Antiviral activity against Vaccinia virus infected in primary rabbit kidney cells assessed as inhibition of virus-induced cytopathogenicity. The assay is classed as functional, Orthopoxvirus vaccinia. (In general: Cytopathic effects are the visible damage that an infection or toxin causes in cultured cells.)

`Cc1cn([C@@H]2O[C@H](CO)[C@@H](O)[C@@H]2O)c(=O)[nH]c1=O`: the ID50 is 3.9 ×10⁻⁶ M.

Take `O=c1[nH]c(=O)n([C@@H]2O[C@H](CO)[C@@H](O)[C@@H]2O)cc1[N+](=O)[O-]`: the ID50 is reported as over 6.9 ×10⁻⁴ M.

For the compound `N#Cc1cn([C@@H]2O[C@H](CO)[C@@H](O)[C@@H]2O)c(=O)[nH]c1=O`, the ID50 is listed as over 3.7 ×10⁻⁴ M.

As to `O=c1[nH]c(=O)n([C@@H]2O[C@H](CO)[C@@H](O)[C@@H]2O)cc1O`, the ID50 is given as over 7.7 ×10⁻⁴ M.

For the compound `O=c1ccn([C@@H]2O[C@H](CO)[C@@H](O)[C@@H]2O)c(=O)[nH]1` [ARAURIDINE], the ID50 stood at 8.2 ×10⁻⁴ M.
